Results: ChEMBL document CHEMBL6087480, “In Search for Inhibitors of Human Aldo-Keto Reductase 1B10 (AKR1B10) as Novel Agents to Fight Cancer and Chemoresistance: Current State-of-the-Art and Prospects” (J Med Chem, 2025)

What was measured:
[1] = biological target: T1, Aldo-keto reductase family 1 member B10 (Homo sapiens, UniProt O60218); assay: Inhibition of human recombinant AKR1B10
[2] = biological target: T2, Aldo-keto reductase family 1 member B1 (Homo sapiens, UniProt P15121); assay: Inhibition of human recombinant AKR1B1 by fluorescence based analysis
[3] = biological target: T1, Aldo-keto reductase family 1 member B10; assay: Inhibition of AKR1B10 (unknown origin)
[4] = biological target: T2, Aldo-keto reductase family 1 member B1; assay: Inhibition of AKR1B1 (unknown origin)
[5] = biological target: T2, Aldo-keto reductase family 1 member B1; assay: Inhibition of human recombinant AKR1B1
[6] = biological target: T2, Aldo-keto reductase family 1 member B1; assay: Inhibition of N-terminal 6his-tagged wild type human recombinant AKR1B1 extracted from Escherichia coli BL21 (DE3) by fluorescence based analysis

T1 sequence (O60218 whole entry): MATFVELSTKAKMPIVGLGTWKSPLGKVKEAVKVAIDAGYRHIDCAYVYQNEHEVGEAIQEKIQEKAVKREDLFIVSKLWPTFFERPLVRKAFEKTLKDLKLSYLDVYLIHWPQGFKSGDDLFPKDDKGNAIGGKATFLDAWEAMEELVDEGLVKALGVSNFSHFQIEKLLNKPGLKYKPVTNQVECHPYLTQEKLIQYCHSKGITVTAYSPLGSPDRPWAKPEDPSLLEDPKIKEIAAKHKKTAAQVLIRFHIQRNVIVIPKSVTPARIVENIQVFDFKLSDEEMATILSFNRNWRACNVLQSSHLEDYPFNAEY

| Compound | IC50 [3] | IC50 [4] | also measured |
| --- | --- | --- | --- |
| Cc1ccc(Cl)c(Nc2ccccc2C(=O)O)c1Cl [MECLOFENAMIC ACID] |  |  | IC50 [1]: 9800 nM; IC50 [2]: > 100000 nM |
| Cc1c2cc(O)c(=O)cc-2oc2cc(O)c(O)cc12 | 400 nM |  |  |
| C[C@]12CCC(=O)C[C@@H]1CC[C@@H]1[C@@H]2CC[C@]2(C)[C@@H](C(=O)CO)CC[C@@H]12 | 370 nM | 55000 nM |  |
| Oc1c(F)c(F)c(-c2c(F)c(F)c(O)c(F)c2F)c(F)c1F | 1000 nM | 300 nM |  |
| O=C(O)Cn1ccc(=O)n(Cc2ccc(Cl)c([N+](=O)[O-])c2)c1=O | 21600 nM | 10000 nM |  |
| COc1ccc(/N=c2\oc3cc(O)ccc3cc2C(=O)Nc2cccc(C)n2)cc1OC | 30 nM |  |  |
| C[C@@]12CCC[C@H]1[C@@H]1C[C@H](O)C3=C[C@@H](O)CC[C@]3(C)[C@H]1CC2 | 500 nM | 68000 nM |  |
| COc1cc(O)ccc1/C=C/C(=O)OCCCc1ccccc1O | 100 nM |  |  |
| Cc1cc(O)c2c(c1)C(=O)c1cc(O[C@@H]3OC[C@](O)(CO)[C@H]3O)cc(O)c1C2=O [FRANGULIN B] |  |  | IC50 [5]: 5450 nM |
| O=c1c(O)c(-c2ccc(O)c(O)c2)oc2cc(O)cc(O)c12 [QUERCETIN] | 1900 nM |  |  |
| C[C@@]12CCC[C@H]1[C@@H]1CC(=O)C3=CC(=O)CC[C@]3(C)[C@H]1CC2 | 810 nM | 158000 nM |  |
| C=CCc1cc(-c2cccc(CC=C)c2O)ccc1O |  |  | IC50 [5]: 36000 nM |
| CC(=O)[C@H]1CC[C@H]2[C@@H]3CC[C@@H]4CC(=O)CC[C@]4(C)[C@H]3CC[C@]12C | 780 nM | 9000 nM |  |
| C[C@]12CCC(=O)C[C@@H]1CC[C@@H]1[C@@H]2CC[C@]2(C)C(=O)CC[C@@H]12 | 390 nM | 25000 nM |  |
| COc1ccc(/N=c2\oc3cc(O)ccc3cc2C(=O)Nc2ccccn2)cc1 | 500 nM |  |  |
| CC1=C(CC(=O)O)c2cc(F)ccc2/C1=C\c1ccc([S+](C)[O-])cc1 (stereo not given) |  |  | IC50 [1]: 350 nM; IC50 [2]: 210 nM |
| COc1cc(/C=C/C(=O)CC(=O)/C=C/c2ccc(O)c(OC)c2)ccc1O [CURCUMIN] |  |  | IC50 [5]: 7300 nM |
| Cc1cc(O)c2c(c1)C(=O)c1cc(O)cc(O)c1C2=O [EMODIN] |  |  | IC50 [5]: 3470 nM |
| CC(C)=CCC1=C(O)[C@](O)(CC=C(C)C)C(=O)C(C(=O)C(C)C)=C1O |  | > 125000 nM |  |
| COc1ccc(/N=c2\oc3cc(O)ccc3cc2C(=O)Nc2ccccn2)c(OC)c1 | 10 nM |  |  |
| COc1ccc(OC)c(/N=c2\oc3cc(O)ccc3cc2C(=O)Nc2ccccn2)c1 | 20 nM |  |  |
| C[C@H](CCC(=O)O)[C@H]1CC[C@H]2[C@@H]3CC[C@@H]4CCCC[C@]4(C)[C@H]3CC[C@]12C [URSOCHOLANIC ACID] | 50 nM | 16000 nM |  |
| C[C@]12CC[C@@H]3c4ccc(O)cc4CC[C@H]3[C@@H]1CCC2=O [ESTRONE] | 1600 nM | 31000 nM |  |
| CC(C)=CCc1c(O)cc2oc3cc(O)c(O)c(CC=C(C)C)c3c(=O)c2c1O |  |  | IC50 [5]: 290 nM |
| O=c1c(-c2ccc(O)cc2)coc2cc(O)cc(O)c12 [GENISTEIN] | 5500 nM |  |  |
| COc1cc(/C=C/C(=O)CC(=O)/C=C/c2ccc(O)cc2)ccc1O |  |  | IC50 [5]: 1200 nM |

| Compound | IC50 [3] | IC50 [4] | also measured |
| --- | --- | --- | --- |
| C=CCc1ccc(O)c(-c2cc(CC=C)ccc2O)c1 [MAGNOLOL] |  |  | IC50 [5]: 28000 nM |
| CC(=O)[C@H]1CC[C@H]2[C@@H]3CC[C@H]4C[C@@H](O)CC[C@]4(C)[C@H]3CC[C@]12C [SEPRANOLONE] | 500 nM | 39000 nM |  |
| COc1cc(O)ccc1/C=C/C(=O)OCCc1ccccc1 | 10 nM |  |  |
| NC(=O)[C@@H]1C[C@]2(NC(=O)NC2=O)c2cc(F)ccc2O1 | 24000 nM |  | IC50 [6]: 80 nM |
| CC1(C)CC[C@]2(C(=O)O)CC[C@]3(C)C(=CC[C@@H]4[C@@]5(C)C[C@@H](O)[C@H](O)C(C)(C)[C@@H]5CC[C@]43C)[C@@H]2C1 [MASLINIC ACID] | 600 nM |  |  |
| O=C(O)Cc1ccccc1Nc1c(Cl)cccc1Cl [DICLOFENAC] |  |  | IC50 [2]: > 100000 nM |
| COc1cc(O)ccc1/C=C/C(=O)OCCCc1cccc(O)c1 | 500 nM |  |  |
| C[C@]12CC[C@H](O)C[C@@H]1CC[C@@H]1[C@@H]2CC[C@]2(C)C(=O)CC[C@@H]12 [EPIANDROSTERONE] | 320 nM | 37000 nM |  |
| O=c1cc(-c2ccccc2)oc2cc(O)cc(O)c12 [CHRYSIN] | 2100 nM | 290 nM |  |
| C[C@]12CC[C@@H]3c4ccc(O)cc4CC[C@H]3[C@@H]1CC[C@@H]2O [ESTRADIOL] | 3000 nM | 24000 nM |  |
| Cc1cc(O)c2c(c1)C(=O)c1cc(O[C@@H]3O[C@@H](C)[C@H](O)[C@@H](O)[C@H]3O)cc(O)c1C2=O [FRANGULIN A] |  |  | IC50 [5]: 5730 nM |
| COc1cc(O)c(CC=C(C)C)c2c1C(=O)C[C@@H](c1ccc(O)cc1)O2 | 1090 nM | 570 nM |  |
| COc1c(Cn2c(=O)ccn(CC(=O)O)c2=O)cc(Br)c(Br)c1Br | 450 nM | 3600 nM |  |
| O=C(/C=C/c1ccc(O)c(O)c1)O[C@H]1C[C@@](O)(C(=O)O)C[C@H](O)[C@@H]1O | 7900 nM |  |  |
| O=C(/C=C/c1ccc(O)c(O)c1)c1ccc(O)cc1O [BUTEIN] |  |  | IC50 [5]: 500 nM |
| O=c1c(O)c(-c2cc(O)c(O)c(O)c2)oc2cc(O)cc(O)c12 [MYRICETIN] |  | 610 nM |  |
| COc1c(O)cc2oc3cc(O)c(CC=C(C)C)c(O)c3c(=O)c2c1CC=C(C)C [MANGOSTIN] |  |  | IC50 [5]: 4100 nM |
| CC(C)=CCC1=C(O)[C@](O)(CC=C(C)C)C(=O)C(C(=O)CC(C)C)=C1O | 1940 nM | > 125000 nM |  |
| Oc1ccc(/C=C/c2cc(O)cc(O)c2)cc1 [RESVERATROL] |  |  | IC50 [5]: 73000 nM |
| O=C(NCCCc1cccc(O)c1)c1cc2ccc(O)cc2oc1=O | 800 nM |  |  |
| C[C@H](CCC(=O)O)[C@H]1CC[C@H]2[C@@H]3C[C@@H](O)[C@@]4(O)C[C@@H](O)CC[C@]4(CO)[C@H]3CC[C@]12C | 760 nM | 5400 nM |  |
| COc1ccc2c(C(=S)N(C)CC(=O)O)cccc2c1C(F)(F)F [TOLRESTAT] | 50 nM |  |  |
| C/C(=C\c1ccc(C(=O)O)cc1Br)c1ccc2c(c1)C(C)(C)CCC2(C)C | 6100 nM | > 70000 nM |  |
| C[C@H](CCC(=O)O)[C@H]1CC[C@H]2[C@@H]3C[C@@H](O)[C@@]4(O)C[C@@H](O)CC[C@]4(C)[C@H]3CC[C@]12C | 830 nM | > 100000 nM |  |
| CC(=O)[C@H]1CC[C@H]2[C@@H]3CC[C@H]4CC(=O)CC[C@]4(C)[C@H]3CC[C@]12C | 440 nM | 13000 nM |  |
| C[C@H](CCC(=O)O)[C@H]1CC[C@H]2[C@@H]3CC[C@@H]4C[C@@H](O)CC[C@]4(C)[C@H]3CC[C@]12C [ISOLITHOCHOLIC ACID] | 20 nM |  |  |
